From ChEMBL document CHEMBL1201862, “PubChem BioAssay data set” (2004)
Activity calls are given as the source filed them.

Columns and labels:
Cytochrome P450 2C9 = Cytochrome P450 2C9 (Homo sapiens, UniProt P11712)
[1] = biological target: T1, Dual specificity protein phosphatase 3 (Homo sapiens, UniProt P51452); assay: Dose Response Confirmation of compounds that inhibit VHR1 in Fluorescent Assay. [Related pubchem assays (depositor defined):AID1661, AID1878]; format: functional
Cytochrome P450 1A2 = biological target: T2, Cytochrome P450 1A2 (Homo sapiens, UniProt P05177);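 further: PubChem cytochrome P450 panel assay, CYP1A2 panel member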
T2 sequence (P05177 whole entry): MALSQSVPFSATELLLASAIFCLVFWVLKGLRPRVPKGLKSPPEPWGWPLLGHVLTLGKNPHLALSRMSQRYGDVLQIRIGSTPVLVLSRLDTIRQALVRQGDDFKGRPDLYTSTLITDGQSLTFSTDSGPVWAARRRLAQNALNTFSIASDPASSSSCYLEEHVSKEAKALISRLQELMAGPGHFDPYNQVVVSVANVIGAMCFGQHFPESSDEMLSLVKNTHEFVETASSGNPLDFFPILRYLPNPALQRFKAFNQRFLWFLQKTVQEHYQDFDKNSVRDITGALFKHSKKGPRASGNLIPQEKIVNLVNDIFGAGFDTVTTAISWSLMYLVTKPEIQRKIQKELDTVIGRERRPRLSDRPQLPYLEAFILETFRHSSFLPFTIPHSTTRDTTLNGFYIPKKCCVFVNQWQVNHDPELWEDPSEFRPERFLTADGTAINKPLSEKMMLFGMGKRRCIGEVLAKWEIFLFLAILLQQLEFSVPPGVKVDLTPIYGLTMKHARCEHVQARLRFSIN

Cytochrome P450 3A4 = Cytochrome P450 3A4 (Homo sapiens, UniProt P08684);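 further: CYP3A4 tested as one member of a cytochrome P450 panel screen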
Cytochrome P450 3A4, sequence (P08684 whole entry): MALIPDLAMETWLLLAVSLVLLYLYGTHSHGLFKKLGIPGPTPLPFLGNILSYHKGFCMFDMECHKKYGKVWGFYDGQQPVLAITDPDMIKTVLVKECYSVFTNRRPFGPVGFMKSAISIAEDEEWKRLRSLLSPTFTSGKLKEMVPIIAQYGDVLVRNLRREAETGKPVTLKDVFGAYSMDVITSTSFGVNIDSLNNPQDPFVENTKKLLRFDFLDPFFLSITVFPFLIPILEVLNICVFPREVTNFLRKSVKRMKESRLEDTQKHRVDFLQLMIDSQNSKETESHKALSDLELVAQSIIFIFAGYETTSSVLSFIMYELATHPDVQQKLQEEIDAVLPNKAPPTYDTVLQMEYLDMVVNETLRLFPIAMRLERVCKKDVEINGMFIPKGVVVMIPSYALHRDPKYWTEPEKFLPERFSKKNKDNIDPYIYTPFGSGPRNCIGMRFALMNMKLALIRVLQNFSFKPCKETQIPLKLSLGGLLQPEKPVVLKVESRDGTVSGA

[2] = biological target: T3, Tyrosine-protein phosphatase non-receptor type 7 (Homo sapiens, UniProt P35236); assay: Dose Response confirmation of compounds that inhibit HePTP. [Related pubchem assays (depositor defined):AID1059, AID1661, AID2085]; format: functional
T3 sequence (P35236 whole entry): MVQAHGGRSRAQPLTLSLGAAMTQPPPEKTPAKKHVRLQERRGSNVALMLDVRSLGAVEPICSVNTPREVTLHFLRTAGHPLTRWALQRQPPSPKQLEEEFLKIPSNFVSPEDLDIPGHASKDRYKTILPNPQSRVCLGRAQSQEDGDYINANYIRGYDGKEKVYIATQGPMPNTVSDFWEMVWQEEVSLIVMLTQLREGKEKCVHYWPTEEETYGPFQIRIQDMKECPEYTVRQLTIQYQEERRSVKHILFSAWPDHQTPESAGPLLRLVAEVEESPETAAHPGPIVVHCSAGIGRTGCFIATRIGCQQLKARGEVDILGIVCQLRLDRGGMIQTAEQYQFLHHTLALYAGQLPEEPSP

Cytochrome P450 2C19 = Cytochrome P450 2C19 (Homo sapiens, UniProt P33261); assay: Cytochrome panel assay with activity outcomes. Panel member name: p450-cyp2c19 Compounds with AC50 equal or less than 10 uM are considered active; format: functional; settings: read-out: AC50
Cytochrome P450 2C19, sequence (P33261 whole entry): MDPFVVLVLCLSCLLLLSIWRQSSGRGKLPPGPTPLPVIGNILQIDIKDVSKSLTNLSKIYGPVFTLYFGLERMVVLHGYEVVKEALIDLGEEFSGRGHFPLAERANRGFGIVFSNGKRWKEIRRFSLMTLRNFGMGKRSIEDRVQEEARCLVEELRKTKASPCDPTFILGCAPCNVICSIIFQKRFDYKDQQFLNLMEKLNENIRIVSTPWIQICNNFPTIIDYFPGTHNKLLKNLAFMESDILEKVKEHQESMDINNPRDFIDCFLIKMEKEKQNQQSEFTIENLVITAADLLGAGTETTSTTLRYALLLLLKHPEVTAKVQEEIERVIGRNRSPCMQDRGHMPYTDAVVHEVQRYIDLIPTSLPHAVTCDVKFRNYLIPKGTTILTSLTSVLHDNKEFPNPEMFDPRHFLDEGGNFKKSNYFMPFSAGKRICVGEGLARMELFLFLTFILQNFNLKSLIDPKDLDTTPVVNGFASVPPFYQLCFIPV

[3] = biological target: T1, Dual specificity protein phosphatase 3; assay: SAR VHR1 Fluorescent Assay for In Vitro dose response studies Set 3. [Related pubchem assays (depositor defined):AID1654, AID1661, AID1878]; format: functional
[4] = biological target: T4, Tyrosine-protein phosphatase non-receptor type 22 (Homo sapiens, UniProt Q9Y2R2); assay: SAR LYP1 Fluorescent Assay using OMFP substrate for In Vitro dose response studies - Set 2. [Related pubchem assays (depositor defined):AID1779, AID1784, AID2140, AID449726, AID488869]; format: functional
T4 sequence (Q9Y2R2 whole entry): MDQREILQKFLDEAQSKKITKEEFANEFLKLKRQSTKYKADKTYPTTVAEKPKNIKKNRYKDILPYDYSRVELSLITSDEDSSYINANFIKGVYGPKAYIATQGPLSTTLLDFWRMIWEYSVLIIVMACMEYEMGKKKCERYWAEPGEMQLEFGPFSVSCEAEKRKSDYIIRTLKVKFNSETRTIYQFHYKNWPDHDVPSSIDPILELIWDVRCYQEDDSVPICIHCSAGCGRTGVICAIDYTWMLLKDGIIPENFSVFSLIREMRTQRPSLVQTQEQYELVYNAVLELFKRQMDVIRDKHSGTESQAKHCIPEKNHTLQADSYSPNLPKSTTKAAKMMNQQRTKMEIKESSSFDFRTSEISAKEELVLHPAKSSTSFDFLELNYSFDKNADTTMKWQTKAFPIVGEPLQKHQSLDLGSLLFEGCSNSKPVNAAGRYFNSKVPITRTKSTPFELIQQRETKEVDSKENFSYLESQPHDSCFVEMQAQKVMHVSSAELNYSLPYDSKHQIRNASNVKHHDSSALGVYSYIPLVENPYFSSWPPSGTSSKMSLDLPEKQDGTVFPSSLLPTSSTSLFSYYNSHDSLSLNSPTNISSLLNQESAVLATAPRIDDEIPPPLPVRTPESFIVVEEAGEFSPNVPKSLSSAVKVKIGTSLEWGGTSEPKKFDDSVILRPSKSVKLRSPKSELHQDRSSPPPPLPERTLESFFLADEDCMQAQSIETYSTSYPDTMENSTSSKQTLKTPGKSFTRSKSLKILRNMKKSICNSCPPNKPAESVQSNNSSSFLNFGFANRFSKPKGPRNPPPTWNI

[5] = biological target: T4, Tyrosine-protein phosphatase non-receptor type 22; assay: SAR LYP1 Fluorescent Assay using OMFP substrate for In Vitro dose response studies - Set 3. [Related pubchem assays (depositor defined):AID1779, AID1784, AID2140, AID2686]; format: functional
[6] = biological target: T5, Carboxy-terminal domain RNA polymerase II polypeptide A small phosphatase 1 (Homo sapiens, UniProt Q9GZU7); assay: CTDSP1 inhibitors, concentration-response, biochemical, absorbance readout, ultra-high-throughput screen actives (AID 540297); format: functional
T5 sequence (Q9GZU7 whole entry): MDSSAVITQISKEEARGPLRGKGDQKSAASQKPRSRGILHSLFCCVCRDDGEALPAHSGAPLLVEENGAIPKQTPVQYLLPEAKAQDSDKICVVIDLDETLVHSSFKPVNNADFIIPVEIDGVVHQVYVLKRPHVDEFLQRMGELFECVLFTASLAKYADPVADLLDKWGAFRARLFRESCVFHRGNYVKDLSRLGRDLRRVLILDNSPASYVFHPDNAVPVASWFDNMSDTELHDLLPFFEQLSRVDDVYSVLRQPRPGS

[7] = biological target: T4, Tyrosine-protein phosphatase non-receptor type 22; assay: inhibition of lymphoid tyrosine phosphatase LYP – biochemical, pCAP fluorogenic substrate, fluorescence, set 3, SAR follow-up (AID 449727); format: functional
[8] = biological target: T4, Tyrosine-protein phosphatase non-receptor type 22; assay: SAR LYP1 Fluorescent Assay using pCAP substrate for In Vitro dose response studies - Set 2. [Related pubchem assays (depositor defined):AID1779, AID1784, AID2135, AID449727]; format: functional
[9] = biological target: Tyrosine-protein phosphatase non-receptor type 12 (Homo sapiens, UniProt Q05209); assay: SAR Selectivity Analysis of small molecule inhibitors of PEST using pCAP in a fluorescence assay. [Related pubchem assays (depositor defined):AID1779, AID1784, AID2135]; format: functional
Tyrosine-protein phosphatase non-receptor type 12, sequence (Q05209 whole entry): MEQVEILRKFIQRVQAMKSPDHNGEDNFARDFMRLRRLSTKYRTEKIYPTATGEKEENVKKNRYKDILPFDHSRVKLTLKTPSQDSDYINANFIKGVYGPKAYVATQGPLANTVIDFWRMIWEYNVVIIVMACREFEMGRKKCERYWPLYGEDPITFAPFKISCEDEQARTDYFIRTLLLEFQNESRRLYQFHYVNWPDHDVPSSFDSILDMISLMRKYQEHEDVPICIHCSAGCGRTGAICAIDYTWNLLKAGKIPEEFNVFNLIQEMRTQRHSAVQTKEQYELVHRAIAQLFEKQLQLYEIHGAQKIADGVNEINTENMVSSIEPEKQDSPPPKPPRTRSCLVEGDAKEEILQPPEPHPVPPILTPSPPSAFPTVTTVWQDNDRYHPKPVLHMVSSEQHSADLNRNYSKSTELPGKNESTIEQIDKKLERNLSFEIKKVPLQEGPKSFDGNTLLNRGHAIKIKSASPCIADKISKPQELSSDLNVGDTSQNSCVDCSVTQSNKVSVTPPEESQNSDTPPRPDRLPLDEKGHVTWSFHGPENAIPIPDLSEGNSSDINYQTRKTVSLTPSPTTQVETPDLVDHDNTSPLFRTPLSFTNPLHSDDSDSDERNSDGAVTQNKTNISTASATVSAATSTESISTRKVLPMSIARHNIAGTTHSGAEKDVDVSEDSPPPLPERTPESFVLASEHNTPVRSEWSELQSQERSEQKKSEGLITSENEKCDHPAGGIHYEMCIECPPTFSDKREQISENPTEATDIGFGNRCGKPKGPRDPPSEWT

[10] = biological target: T3, Tyrosine-protein phosphatase non-receptor type 7; assay: inhibition of hematopoietic tyrosine phosphatase HePTP – biochemical, set 2, SAR follow-up (AID 449736); format: functional
J774.A1 = assay: Confirmation of image-based Screening Assay for Inhibitors of Phagocytosis. [Related pubchem assays (depositor defined):AID1029, AID1643]; format: functional, cell-based; settings: Mus musculus
[11] = protection from phage-mediated lysis, alamar blue read-out – E. coli UTI89, K1F phage, bacterial capsule biogenesis inhibitors (AID 488966); format: functional

T1 sequence (P51452 whole entry): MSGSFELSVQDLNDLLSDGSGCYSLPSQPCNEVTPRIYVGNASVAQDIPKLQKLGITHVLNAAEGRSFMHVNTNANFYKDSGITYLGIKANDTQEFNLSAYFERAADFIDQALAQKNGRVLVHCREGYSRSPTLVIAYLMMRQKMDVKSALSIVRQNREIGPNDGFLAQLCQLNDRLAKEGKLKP
Cytochrome P450 2C9, sequence (P11712 whole entry): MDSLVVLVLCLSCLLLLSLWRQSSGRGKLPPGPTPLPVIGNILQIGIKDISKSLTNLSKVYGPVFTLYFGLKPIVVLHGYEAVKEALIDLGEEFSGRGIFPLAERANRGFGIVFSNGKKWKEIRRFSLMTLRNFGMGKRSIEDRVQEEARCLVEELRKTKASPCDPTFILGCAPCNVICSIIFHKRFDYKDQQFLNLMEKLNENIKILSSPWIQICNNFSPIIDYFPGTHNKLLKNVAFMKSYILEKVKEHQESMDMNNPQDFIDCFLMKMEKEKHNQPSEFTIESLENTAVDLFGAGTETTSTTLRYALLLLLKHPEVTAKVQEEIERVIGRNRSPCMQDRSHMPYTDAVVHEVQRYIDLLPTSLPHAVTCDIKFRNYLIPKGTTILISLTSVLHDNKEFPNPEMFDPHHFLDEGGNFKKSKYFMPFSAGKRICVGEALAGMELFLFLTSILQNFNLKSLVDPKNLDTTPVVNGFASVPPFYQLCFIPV

Compound: Cc1ccc(-c2nc3ccccc3s2)cc1NC(=O)c1cc(-n2cnnc2)ccc1Cl
- AC50 (Cytochrome P450 2C9): 2.51 µM (inconclusive)
- IC50 [1]: 2.21 µM (active)
- AC50 (Cytochrome P450 1A2): 2.24 µM (inconclusive)
- AC50 (Cytochrome P450 3A4): 0.891 µM (inconclusive)
- IC50 [2]: 4.69 µM (active)
- AC50 (Cytochrome P450 2C19): 0.794 µM (inconclusive)
- IC50 [3]: 3.69 µM (active)

Compound: N#C/C(=C\c1ccc(OCc2ccc(Br)cc2)cc1)C(=O)Nc1cccc(C(=O)O)c1
- IC50 [4]: 1.94 µM (active)
- IC50 [5]: 0.925 µM (active)
- IC50 [6]: 1.83 µM (active)
- IC50 [7]: 3.37 µM (active)
- IC50 [8]: 3.5 µM (active)
- IC50 [9]: 0.714 µM (active)
- IC50 [10]: 0.343 µM (active)

Compound: COc1ccccc1-c1nnc2sc(-c3cc4ccccc4o3)nn12
- IC50 (J774.A1): > 25 µM (inactive)

Compound: Cc1cc(NCCN)nc2ccccc12
- IC50 [11]: > 300 µM (active)
